# Experimental data taken from patent US20220009976A1, “Peptide Possessing Mesenchymal-Stem-Cell Mobilizing Activity” (StemRIM Inc., priority 2018, published 2022).
# Key:
# mesenchymal stem cells = experiment: Colony assay of peripheral blood collected after peptide administration (mobilization of mesenchymal stem cells into peripheral blood); assay type: in vivo, C57BL/6J mice; conditions: 4 mg/kg tail vein; blood collected 14 hours after administration; 10 days culture; colonies of 50 or more cells; vs physiological saline
# Procedure: C57BL/6J mice (8 weeks old, male, body weight 25 g) were prepared and divided into a group administered with the artificial sequence peptide […] and a control group. The peptide was administered by injecting into the tail vein, a solution of peptide 1r10 adjusted to a concentration of […] using physiological saline as a solvent in an amount of 100 μL/animal (4 mg/kg dose of peptide). For the control group, physiological saline was injected into the tail vein in an amount of 100 μL/animal. […]
# The supernatant (sample containing peripheral blood-derived cells) obtained by the above procedure was seeded on collagen I-coated 6-well plates (Corning, Cat No. 356400), and cultured for 10 days under the conditions of 37° C., 5% CO2 and 5% O2, using a medium containing Expansion Medium prepared using the MesenCult Expansion Kit (STEMCELL Technologies, Cat No. ST-05513) according to the manual of the kit, 1% L-glutamine (Nacalai Tesque Inc.), 10 μM ROCK inhibitor (Y27632, Tocris Bioscience) and 1% penicillin/streptomycin (Nacalai Tesque Inc.) (all numerical values are final concentrations). […] On the 10th day of culture, cells on the plates were stained with a Differential Quik Stain Kit (Sysmex Corporation, Cat No. 16920), and the number of colonies containing 50 or more cells was counted. […]
# [1] = tested on: atopic dermatitis model mice; experiment: Efficacy in MC903-induced atopic dermatitis (AD) model mice; assay type: in vivo, C57BL/6 mice
# Excerpt: MC903 (generic name: Calcipotriol) was used to induce atopic dermatitis (hereinafter, also referred to as “AD”) in mice. In addition, the peptide 1r10 (TFA salt) described in Example 1 was used as the test substance.
# C57BL/6 mice (C57BL/6JJcl, 7-8 weeks old, male, microbial grade SPF) were obtained from Japan Claire Co., Ltd., acclimated in the animal breeding room for 5 days or more, and then subjected to the following experiments. An ethanol-adjusted MC903 solution was applied to the skin of the auricle of the mice at a dose of 2.25 nmol MC903/ear/once/day five times a week for 2 weeks (ten times in total) to induce atopic dermatitis (AD). This MC903-induced AD model is a model in which AD-like pathology can be reproduced in a short period of time (1-2 weeks) by artificially inducing the secretion of TSLP from epithelial cells, which is actually seen in AD patients, thereby eliciting a series of type 2 immune response cascades (Li M et al., Proc Natl Acad Sci USA. 2006; 103:11736-41).
# They were then divided into the control group and the peptide administration group (n=7 in each group), while the groups were equalized based on the auricle thickness in consideration of the difference in the severity of inflammation between individuals. For peptide administration, the solution of peptide 1r10 adjusted to 0.3 mg/mL with physiological saline was injected into the tail vein at a volume of 5 mL/kg (peptide dose of 1.5 mg/kg) twice in total, once on the grouping day (Day 15) and once during the following 4 days (Day 16 to Day 19). For the control group a solution of bovine serum albumin (BSA) adjusted to 0.3 mg/mL with physiological saline was injected into the tail vein at a volume of 5 mL/kg (BSA dose of 1.5 mg/kg) twice in total, once on the grouping day (Day 15) and once during the following 4 days (Day 16 to Day 19).
# During the peptide administration period (Day 15 to Day 19), ear swellings were measured daily to determine edema. Scaling, which is the main symptom of AD, was determined by photography (three times a week) using a digital camera (E-M1 II; Olympus) from a fixed base at a height of 13-14 cm from the auricle.
# On the 4th day (Day 19) after the start of peptide administration, mice were placed under the influence of isoflurane anesthesia and euthanized with cervical spine dislocation. The skin at auricular inflammation site and its surroundings was quickly excised and collected while on ice to prevent protein denaturation of the sample. After removing excess hair and skin with tweezers, the collected auricular skin was immersed in 10% formalin and fixed at 4° C. overnight while shaking on ice using a shaker. After fixation, the skin was thoroughly washed with phosphate buffered saline (PBS) and trimmed, and then a paraffin block was made using an automatic embedding device (Excelsior ES; Thermo Scientific) with attention to the tissue polarity in the dorsoventral axis/left-right axis specific to the skin). Then, it was sliced (5 μm thick) with a rotary microtome (HM 325; Thermo Scientific), fixed on a slide glass, and subjected to various staining. As pathological analysis, skin thickness and infiltration of immune cells were evaluated by histochemical staining and fluorescent immunostaining, respectively.
# To quantitatively evaluate the healing condition of the site of inflammation, hematoxylin-eosin (HE) staining of the paraffin thin sections (5 μm thick) of skin tissue generated as described above was performed to measure the dermal thickness. Specifically, three sections were prepared for each individual, and each section was photographed with a microscope (Keyence BZ-X710) at one site each of the center of inflammation, head side, and tail side (that is, a total of 9 sites were photographed per individual). […]
substance,measurement,setting,value
"peptide 1r10: artificial sequence peptide consisting of the amino acid sequence of SEQ ID NO: 1, chemically synthesized (IMWLCQYFFQCHKCAVKKKTWKEKKDRRHP)",number of colonies obtained on the plate by culturing the peripheral blood-derived cells,mesenchymal stem cells,larger
same,dermis thickness,"[1]; 1.5 mg/kg tail vein twice, 4th day (Day 19) after start of administration, HE staining, vs control group",statistically significant decrease
same,scaling in the auricle,"[1]; 1.5 mg/kg tail vein twice, 4 days after start of peptide administration, vs control group (BSA)",reduction of scaling
same,auricular thickness (edema),"[1]; 1.5 mg/kg tail vein twice, Day 15 to Day 19, vs control group (BSA)",statistically significant reduction
same,number of CD45-positive cells in auricular skin sections,"[1]; 1.5 mg/kg tail vein twice, Day 19, per high-power field (400×), vs control group",statistically significant decrease
same,changes in mouse body weight during the period of the study,"[1]; Day 15 to Day 19, between the groups, p>0.05, repeated one-way ANOVA",not significantly different
same,dermis thickness,"[1]; dose of 0.5 mg/kg, vs control group, data not shown",statistically significant decrease
